The values below come from patent publication US20260078119A1, “DEGRADER COMPOUNDS AND USES THEREOF” (Bristol-Myers Squibb Company, priority 2024, published 2026).

The target in test [1] is T1, FAK (Homo sapiens, UniProt Q05397).
T1 construct: homozygous knock-in of a HiBiT tag (Promega Corporation, Madison, WI) to the C-terminus of the FAK gene in its natural genomic locus; endogenous in cells; host or cells: JHH-4-FAK-HiBiT clone d01 (CRISPR-Cas9 knock-in at the endogenous locus)
Briefly: FAK-HiBiT Degradation Assay. Type of test: cell-based. The following applies: for DC50: JHH-4-FAK-HiBiT clone d01 cells, two hours incubation, 10-point dose response, 3-fold dilution starting at 1 μM, Nano-Glo HiBiT luminescence, read-out: FAK HiBiT EC50; for FAK HiBiT Ymin: lower limit of the four parameter fit (value A), Ymax derived using DMSO control, JHH-4-FAK-HiBiT cells, two hours. The gist of the method:
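Degradation read out by HiBiT lytic luminescence after 2 h compound exposure (top concentration 1 μM, 3-fold, 10 points) in JHH-4 clone d01 bearing endogenous FAK-HiBiT knock-in. Four-parameter logistic fit gave EC50 and Ymin; DMSO wells defined Ymax.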
(The HiBiT peptide binds its large partner to form an active luciferase.)

For test [2], the system named is CAL-51 cells. The test can be described thus: CAL-51 Cell Proliferation Assay. The class given is cell-based. The following applies: for EC50: Homo sapiens, 120 hours incubation, 10-point dose response, 4-fold dilutions starting at 10 μM, Cell-Titer-Glo, read-out: CAL-51 Prolif EC50; for CAL-51 Prolif Ymin: minimal percent of DMSO control observed in the concentrations tested (Ymin-obs), 120 hours. The procedure, abridged: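 EC50 comes from a four-parameter logistic fit of blank-corrected, DMSO-normalised CellTiter-Glo signal after 120 h growth (37 °C, 350 cells/well, RPMI complete medium). Compounds ran as 10-point 4-fold series starting at 10 μM, duplicate, 0.1% DMSO. Ymin-obs records the minimal percent of DMSO control observed.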

T1 sequence (Q05397 whole entry): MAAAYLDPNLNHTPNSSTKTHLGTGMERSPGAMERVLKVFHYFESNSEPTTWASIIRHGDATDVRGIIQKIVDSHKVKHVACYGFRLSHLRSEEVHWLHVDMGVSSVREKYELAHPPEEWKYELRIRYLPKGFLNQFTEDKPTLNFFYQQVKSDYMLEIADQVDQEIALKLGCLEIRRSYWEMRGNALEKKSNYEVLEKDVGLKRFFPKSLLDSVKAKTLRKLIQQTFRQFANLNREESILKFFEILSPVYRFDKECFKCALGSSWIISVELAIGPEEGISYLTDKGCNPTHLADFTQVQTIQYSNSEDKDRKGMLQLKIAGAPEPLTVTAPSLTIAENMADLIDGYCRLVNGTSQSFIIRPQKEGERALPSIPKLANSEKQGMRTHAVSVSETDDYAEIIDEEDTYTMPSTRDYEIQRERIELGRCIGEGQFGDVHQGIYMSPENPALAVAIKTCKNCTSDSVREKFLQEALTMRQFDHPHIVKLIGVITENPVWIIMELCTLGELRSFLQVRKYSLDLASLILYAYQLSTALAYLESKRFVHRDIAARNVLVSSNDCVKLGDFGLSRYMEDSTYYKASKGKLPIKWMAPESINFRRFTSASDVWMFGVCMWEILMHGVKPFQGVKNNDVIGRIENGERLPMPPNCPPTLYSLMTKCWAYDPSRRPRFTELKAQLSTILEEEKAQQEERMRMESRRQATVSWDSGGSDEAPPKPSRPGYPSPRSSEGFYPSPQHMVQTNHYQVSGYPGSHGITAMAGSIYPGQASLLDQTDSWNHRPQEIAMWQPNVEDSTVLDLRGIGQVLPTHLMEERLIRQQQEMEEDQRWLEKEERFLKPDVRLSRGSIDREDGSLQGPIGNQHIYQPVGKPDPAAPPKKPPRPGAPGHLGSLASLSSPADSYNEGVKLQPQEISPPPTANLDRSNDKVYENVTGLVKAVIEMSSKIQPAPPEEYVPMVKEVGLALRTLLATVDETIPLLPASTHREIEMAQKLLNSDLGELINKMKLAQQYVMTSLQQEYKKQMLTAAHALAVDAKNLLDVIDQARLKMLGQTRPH

Regarding `N#Cc1ccc(-c2c(F)c(N3CC(F)C3)nc3c2cnn3Cc2ccc3c(c2)CN([C@H]2CCC(=O)NC2=O)C3=O)nc1` [Example 75, 6-[1-({2-[(3S)-2,6-dioxopiperidin-3-yl]-1-oxo-2,3-dihydro-1H-isoindol-5-yl}methyl)-5-fluoro-6-(3-fluoroazetidin-1-yl)-1H-pyrazolo[3,4-b]pyridin-4-yl]pyridine-3-carbonitrile], in test [1], the DC50 came to 7.95 nM and the “FAK HiBiT Ymin” value is listed as 23.15. Besides, in test [2], the EC50 stood at 9.67 nM and the “CAL-51 Prolif Ymin” value is 52.27.
As to `O=C1CCC(N2Cc3cc(Cn4ncc5c(-c6ncc(F)cc6Cl)cc(N6CC[C@@H](O)C6)nc54)ccc3C2=O)C(=O)N1` (stereo partly drawn) [Example 114, 3-(5-{[4-(3-chloro-5-fluoropyridin-2-yl)-6-[(3R)-3-hydroxypyrrolidin-1-yl]-1H-pyrazolo[3,4-b]pyridin-1-yl]methyl}-1-oxo-2,3-dihydro-1H-isoindol-2-yl)piperidine-2,6-dione], in test [1], the DC50 amounted to 55.7 nM and the “FAK HiBiT Ymin” value is 14.15. Also, in test [2], the EC50 worked out at 35 nM and the “CAL-51 Prolif Ymin” value is reported as 40.82.
For `O=C1CCC(N2Cc3cc(Cn4ncc5c(-c6ncc(F)cc6Cl)cc(N6CC(F)C6)nc54)ccc3C2=O)C(=O)N1` (centres unmarked) [Example 56, 3-(5-{[4-(3-chloro-5-fluoropyridin-2-yl)-6-(3-fluoroazetidin-1-yl)-1H-pyrazolo[3,4-b]pyridin-1-yl]methyl}-1-oxo-2,3-dihydro-1H-isoindol-2-yl)piperidine-2,6-dione], in test [1], the DC50 stood at 3.72 nM and the “FAK HiBiT Ymin” value turned out to be 10.37. Further, in test [2], the EC50 was 1.67 nM and the “CAL-51 Prolif Ymin” value came out at 26.66.
Consider `CCOc1cnc(-c2cc(N3CC(F)C3)nc3c2cnn3Cc2ccc3c(c2)CN(C2CCC(=O)NC2=O)C3=O)c(Cl)c1` (centres unmarked) [Example 44, 3-(5-{[4-(3-chloro-5-ethoxypyridin-2-yl)-6-(3-fluoroazetidin-1-yl)-1H-pyrazolo[3,4-b]pyridin-1-yl]methyl}-1-oxo-2,3-dihydro-1H-isoindol-2-yl)piperidine-2,6-dione], for which, in test [1], the DC50 worked out at 1.73 nM and the “FAK HiBiT Ymin” value is given as 11.00. Besides, in test [2], the EC50 is 0.69 nM and the “CAL-51 Prolif Ymin” value stood at 28.22.
Turning to `O=C1CC[C@H](N2Cc3cc(Cn4ncc5c(-c6ncc(C(F)(F)F)cc6Cl)c(F)c(N6CC(F)C6)nc54)ccc3C2=O)C(=O)N1` [Example 1, (3S)-3-[5-({4-[3-chloro-5-(trifluoromethyl)pyridin-2-yl]-5-fluoro-6-(3-fluoroazetidin-1-yl)-1H-pyrazolo[3,4-b]pyridin-1-yl}methyl)-1-oxo-2,3-dihydro-1H-isoindol-2-yl]piperidine-2,6-dione], in test [1], the DC50 worked out at 0.14 nM and the “FAK HiBiT Ymin” value was determined as 7.57. In addition, in test [2], the concentration for a half-maximal effect (EC50) was determined as 0.17 nM and the “CAL-51 Prolif Ymin” value is 27.59.
For `O=C1CC[C@@H](N2Cc3cc(Cn4ncc5c(-c6ncc(C7COC7)cc6Cl)cc(N6CC(F)C6)nc54)ccc3C2=O)C(=O)N1` (single isomer, unassigned) [Example 127], in test [1], the DC50 was 213 nM and the “FAK HiBiT Ymin” value is 42.87. In test [2], the EC50 worked out at 8.94 nM and the “CAL-51 Prolif Ymin” value is 37.97.
As to `O=C1CCC(N2Cc3cc(Cn4ncc5c(-c6ncc(C(F)F)cc6Cl)cc(N6CC(F)C6)nc54)ccc3C2=O)C(=O)N1` (centres unmarked) [Example 43, 3-[5-({4-[3-chloro-5-(difluoromethyl)pyridin-2-yl]-6-(3-fluoroazetidin-1-yl)-1H-pyrazolo[3,4-b]pyridin-1-yl}methyl)-1-oxo-2,3-dihydro-1H-isoindol-2-yl]piperidine-2,6-dione], in test [1], the DC50 was 1.59 nM and the “FAK HiBiT Ymin” value is 6.11. In test [2], the EC50 was 155 nM and the “CAL-51 Prolif Ymin” value is given as 51.95.
For `O=C1CCC(N2Cc3cc(Cn4ncc5c(-c6ncc(F)cc6Cl)c(F)c(N6CC(F)C6)nc54)ccc3C2=O)C(=O)N1` (centres unmarked) [Example 31, 3-(5-{[4-(3-chloro-5-fluoropyridin-2-yl)-5-fluoro-6-(3-fluoroazetidin-1-yl)-1H-pyrazolo[3,4-b]pyridin-1-yl]methyl}-1-oxo-2,3-dihydro-1H-isoindol-2-yl)piperidine-2,6-dione], in test [1], the DC50 worked out at 0.76 nM and the “FAK HiBiT Ymin” value is given as 8.92. Moreover, in test [2], the half-maximal effective concentration (EC50) is 3.89 nM and the “CAL-51 Prolif Ymin” value is given as 34.80.
For the compound `O=C1CCC(N2Cc3cc(Cn4cnc5c(-c6ncc(F)cc6Cl)cc(N6CC(F)C6)nc54)ccc3C2=O)C(=O)N1` (centres unmarked) [Example 25, 3-(5-((7-(3-chloro-5-fluoropyridin-2-yl)-5-(3-fluoroazetidin-1-yl)-3H-imidazo[4,5-b]pyridin-3-yl)methyl)-1-oxoisoindolin-2-yl)piperidine-2,6-dione], in test [1], the DC50 stood at 21.1 nM and the “FAK HiBiT Ymin” value was 5.97. Further, in test [2], the EC50 turned out to be 146 nM and the “CAL-51 Prolif Ymin” value was 46.08.
In the same order, the values of `O=C1CC[C@H](N2Cc3cc(Cn4ncc5c(-c6ncc(C7COC7)cc6Cl)cc(N6CC(F)C6)nc54)ccc3C2=O)C(=O)N1` (single isomer, unassigned) [Example 108] are 40.5 nM, 13.46, 18.2 nM and 28.68.
The like results for `O=C1CC[C@H](N2Cc3cc(Cn4ncc5c(-c6ncc(C(F)(F)F)cc6Cl)cc(NC6CCOCC6)nc54)ccc3C2=O)C(=O)N1` [Example 134, (3S)-3-[5-({4-[3-chloro-5-(trifluoromethyl)pyridin-2-yl]-6-[(oxan-4-yl)amino]-1H-pyrazolo[3,4-b]pyridin-1-yl}methyl)-1-oxo-2,3-dihydro-1H-isoindol-2-yl]piperidine-2,6-dione] were, in that order, ≥ 1000 nM, 91.34, 8.5 nM and 65.79.
Take `N#Cc1ccc(-c2c(F)c(N3CC(F)C3)nc3c2cnn3Cc2ccc3c(c2)CN(C2CCC(=O)NC2=O)C3=O)c(F)c1` (centres unmarked) [Example 41, 4-(1-{[2-(2,6-dioxopiperidin-3-yl)-1-oxo-2,3-dihydro-1H-isoindol-5-yl]methyl}-5-fluoro-6-(3-fluoroazetidin-1-yl)-1H-pyrazolo[3,4-b]pyridin-4-yl)-3-fluorobenzonitrile]: in test [1], the DC50 came out at 1.22 nM and the “FAK HiBiT Ymin” value was 10.49. Moreover, in test [2], the EC50 was 1.23 nM and the “CAL-51 Prolif Ymin” value came out at 26.68.
The like results for `O=C1CC[C@H](N2Cc3cc(Cn4ncc5c(-c6ncc(OC(F)F)cc6Cl)cc(N6CC(F)C6)nc54)ccc3C2=O)C(=O)N1` [Example 49, (3S)-3-[5-({4-[3-chloro-5-(difluoromethoxy)pyridin-2-yl]-6-(3-fluoroazetidin-1-yl)-1H-pyrazolo[3,4-b]pyridin-1-yl}methyl)-1-oxo-2,3-dihydro-1H-isoindol-2-yl]piperidine-2,6-dione] were, in that order, 2 nM, 7.78, 0.37 nM and 23.11.
Consider `Cc1cc(Cl)cnc1-c1cc(N2CC(F)C2)nc2c1cnn2Cc1ccc2c(c1)CN([C@H]1CCC(=O)NC1=O)C2=O` [Example 50, (3S)-3-(5-{[4-(5-chloro-3-methylpyridin-2-yl)-6-(3-fluoroazetidin-1-yl)-1H-pyrazolo[3,4-b]pyridin-1-yl]methyl}-1-oxo-2,3-dihydro-1H-isoindol-2-yl)piperidine-2,6-dione], for which, in test [1], the DC50 was determined as 2.23 nM and the “FAK HiBiT Ymin” value was 5.82. Moreover, in test [2], the EC50 amounted to 2.12 nM and the “CAL-51 Prolif Ymin” value is 27.72.
The like results for `O=C1CC[C@H](N2Cc3c(ccc(Cn4ncc5c(-c6ncc(F)cc6Cl)cc(N6CC(F)C6)nc54)c3F)C2=O)C(=O)N1` (single isomer, unassigned) [Example 61] were, in that order, 3.6 nM, 7.65, 7.1 nM and 35.56.
Turning to `O=C1CCC(N2Cc3cc(Cn4ncc5c(-c6ncc(C(F)(F)F)cc6Cl)cc(N6CC(F)C6)nc54)ccc3C2=O)C(=O)N1` (centres unmarked) [Example 34, 3-[5-({4-[3-chloro-5-(trifluoromethyl)pyridin-2-yl]-6-(3-fluoroazetidin-1-yl)-1H-pyrazolo[3,4-b]pyridin-1-yl}methyl)-1-oxo-2,3-dihydro-1H-isoindol-2-yl]piperidine-2,6-dione], in test [1], the DC50 is 0.91 nM and the “FAK HiBiT Ymin” value is 8.98. Also, in test [2], the EC50 worked out at 1.08 nM and the “CAL-51 Prolif Ymin” value came to 26.10.
With `O=C1CCC(N2Cc3cc(Cn4ncc5c(-c6ncc(C(F)(F)F)cc6Cl)cc(N6CC(F)C6)cc54)ccc3C2=O)C(=O)N1` (centres unmarked) [Example 26, 3-(5-((4-(3-chloro-5-(trifluoromethyl)pyridin-2-yl)-6-(3-fluoroazetidin-1-yl)-1H-indazol-1-yl)methyl)-1-oxoisoindolin-2-yl)piperidine-2,6-dione], in test [1], the DC50 turned out to be 8.5 nM and the “FAK HiBiT Ymin” value turned out to be 11.53. In test [2], the 50% effective concentration (EC50) was 2.32 nM and the “CAL-51 Prolif Ymin” value was found to be 24.69.

The EC50 is the midpoint of the concentration-response curve.
